Target: Cathepsin B (Homo sapiens) (UniProt P07858)
Test: Second-order rate constant for inactivation of human cathepsin B

Q: How did the K2 turn out when `COc1ccc([Te]2(Cl)OC3(CCCCC3)/C2=C\Br)cc1` (centres undefined) was run?
A: The K2 was 7700 M⁻¹ s⁻¹.

Q: Which K2 does the source give for `COc1ccc([Te](Cl)(Cl)/C=C(\Cl)c2ccccc2)cc1` here?
A: Its K2 is 7900 M⁻¹ s⁻¹.

Q: For `COc1ccc([Te]2(Cl)OC3(CCCCCC3)/C2=C\Cl)cc1` (centres undefined), which K2 is on record?
A: Its K2 is 1600 M⁻¹ s⁻¹.

Q: `COc1ccccc1C(=O)/C=C(/c1ccccc1OC)[Te](Cl)(Cl)Cl` was tested. Which K2 did it give?
A: The K2 was 15000 M⁻¹ s⁻¹.

Q: How did the K2 turn out when `Cl[Te]1(Cl)OCCO1` was run?
A: The K2 was 0.037 M⁻¹ s⁻¹.

Q: With `COc1ccc([Te]2(Cl)OC3(CCCCC3)/C2=C\Cl)cc1` (centres undefined) as the molecule, how does the K2 read?
A: The K2 was 36000 M⁻¹ s⁻¹.

Q: For `COc1ccc([Te](Cl)(Cl)/C(=C/Cl)C(C)(C)O)cc1`, which K2 is on record?
A: The K2 was 11000 M⁻¹ s⁻¹.

Q: For `CC[N+](CC)(CC)Cc1ccccc1.ClC1=C[Te](Cl)(Cl)OC1`, which K2 is on record?
A: Its K2 is 6000 M⁻¹ s⁻¹.

Q: Which K2 does the source give for `OC(C/C(=C\Cl)[Te](Cl)(Cl)Cl)c1ccccc1` (centres undefined) here?
A: Its K2 is 12000 M⁻¹ s⁻¹.
